Results from US10751301B2, “Methods for inhibiting conversion of choline to trimethylamine (TMA)” (The Procter & Gamble Company, priority 2017, dated 2020).
pEC50, pIC50: −log10 of the molar value. Read-outs that look alike come from different tables or passages of the source. Each block holds one compound with its values, some of them ahead of it.

Tests used:
[1] = system: Proteus mirabilis 29906 (Pm) lysate; assay: Inhibition of formation of TMA from choline in Proteus mirabilis lysate (Example 2); assay type: biochemical; details: read-out: TMA Inhibition (IC50, mol/L)
[2] = system: human fecal polymicrobial community; assay: Human fecal polymicrobial incubation with d9-choline, TMA inhibition (Example 3); assay type: cell-based
mice (C57b1/6) = assay: Preclinical screening method, plasma TMAO in mice on 1% choline added diet (Example 4); assay type: in vivo; details: oral gavage once daily, 310 mg/kg/day
[3] = target: recombinant P. mirabilis Cut C/D lysate (Proteus mirabilis, UniProt B4EYG1); assay: biochemical
[4] = target: recombinant D. alaskensis Cut C/D lysate (Oleidesulfovibrio alaskensis, UniProt Q30W70); assay: biochemical
[5] = system: whole cell wild-type P. mirabilis; assay: Inhibition of conversion of choline to TMA by whole cell wild-type P. mirabilis (Example 5); assay type: cell-based
C57b1/6 female mice = assay: Rapid preclinical method, d9-choline challenge in mice (Example 6); assay type: in vivo; details: for Calculated EC50 (mg/kg) compared to Vehicle Control: mice, oral gavage with 2 mg d9-Choline, Time 3 hr
[6] = system: fecal polymicrobial community; details: male, human
[7] = Pm lysate 1.5 mg/mL protein, 50 μM d9-choline chloride, 37° C. two hours
[8] = Homo sapiens, 0.2% fecal slurry, 50 μM d9-choline chloride, 20 hours, 37° C., anaerobic, ND=not detectable, read-out: Example 3, TMA Inhibition (IC50, mol/L)
[9] = Proteus mirabilis; read-out: EC50 (mol/L) whole cell wild-type P. mirabilis

Sequence of recombinant D. alaskensis Cut C/D lysate (Q30W70 whole entry): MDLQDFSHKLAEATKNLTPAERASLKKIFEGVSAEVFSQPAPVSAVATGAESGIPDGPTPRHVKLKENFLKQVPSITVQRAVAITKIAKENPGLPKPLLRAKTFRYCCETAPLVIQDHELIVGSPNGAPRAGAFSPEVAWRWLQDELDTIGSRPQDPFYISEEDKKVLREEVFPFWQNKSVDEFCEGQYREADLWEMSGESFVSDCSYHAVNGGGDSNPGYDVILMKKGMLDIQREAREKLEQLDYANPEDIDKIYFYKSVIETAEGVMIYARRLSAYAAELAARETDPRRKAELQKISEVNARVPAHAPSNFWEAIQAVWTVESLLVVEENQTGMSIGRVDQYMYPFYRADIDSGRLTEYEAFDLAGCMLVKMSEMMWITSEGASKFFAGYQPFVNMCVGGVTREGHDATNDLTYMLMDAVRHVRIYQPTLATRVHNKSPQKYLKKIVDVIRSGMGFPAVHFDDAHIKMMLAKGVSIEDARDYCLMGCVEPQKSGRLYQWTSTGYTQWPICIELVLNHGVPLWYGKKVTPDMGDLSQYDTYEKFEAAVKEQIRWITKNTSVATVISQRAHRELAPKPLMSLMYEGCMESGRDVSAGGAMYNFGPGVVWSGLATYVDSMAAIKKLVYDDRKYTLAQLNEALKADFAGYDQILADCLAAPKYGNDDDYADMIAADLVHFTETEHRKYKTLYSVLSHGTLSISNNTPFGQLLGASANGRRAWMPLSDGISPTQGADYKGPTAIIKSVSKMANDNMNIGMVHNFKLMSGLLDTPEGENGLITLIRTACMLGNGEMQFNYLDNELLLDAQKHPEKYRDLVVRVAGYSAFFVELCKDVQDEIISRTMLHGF

pIC50 [1, 7]: 3.72
pIC50 [2, 8]: 3.12
SMILES: CC[S+](CCO)c1ccccc1 (stereo not shown) [compound 17, Phenyl-(2-hydroxyethyl)-ethyl-sulfonium]

pIC50 [1, 7]: 3.89
pIC50 [2, 8]: 4.66
SMILES: [O-][S+](CCO)c1ccccc1 (stereo not shown) [compound 18, 2-hydroxyethyl-oxido-phenyl-sulfonium]

SMILES: OCC[S+]1CCOCC1 [compound 23, 2-(1,4-oxathian-4-ium-4-yl)ethanol]
pIC50 [1]: 4.97

pIC50 [1, 7]: 4.80
SMILES: C=CC[S+]1CCOCC1 [compound 7, 4-allyl-1,4-oxathian-4-ium]

pIC50 [1, 7]: 5.42
pIC50 [2, 8]: 3.99
SMILES: C=CC[S+]([O-])CCO (stereo not shown) [compound 22, Allyl-(2-hydroxyethyl)-oxido-sulfonium]

SMILES: C=CC[S+](C)CCO (stereo not shown) [ID 1, Allyl-(2-hydroxyethyl)-methyl-sulfonium]
Remaining plasma TMAO as a percentage of plasma TMAO in same day vehicle control (% of control remaining) (mice (C57b1/6); Days 1): 18%
pIC50 [3]: 7.01
pIC50 [4]: 6.51
pEC50 [5, 9]: 7.14
Calculated EC50 (mg/kg) compared to Vehicle Control (C57b1/6 female mice): 0.87 mg/kg

SMILES: C[S+](CI)CCO (stereo not shown) [ID 6, Iodomethyl-(2-hydroxyethyl)-methyl-sulfonium]
Remaining plasma TMAO as a percentage of plasma TMAO in same day vehicle control (% of control remaining) (mice (C57b1/6); Days 1): 3%
pIC50 [3]: 6.44
pIC50 [4]: 5.43
pEC50 ([5]; Proteus mirabilis, read-out: EC50 (mol/L) whole cell wild-type P. mirabilis): 6.70
Calculated EC50 (mg/kg) compared to Vehicle Control (C57b1/6 female mice): 1.10 mg/kg

pIC50 [1, 7]: 3.40
pIC50 [2, 8]: 4.29
SMILES: CCCCC[S+](C)CCO (stereo not shown) [compound 3, Pentyl-(2-hydroxyethyl)-methyl-sulfonium]

SMILES: C=C(C)C[S+](C)CCO (stereo not shown) [compound 9, 2-hydroxyethyl-methyl-(2-methylallyl)sulfonium]
pIC50 [1, 7]: 3.78

SMILES: C#CC[S+](C)C [ID 20, Dimethyl(prop-2-ynyl)sulfonium]
Remaining plasma TMAO as a percentage of plasma TMAO in same day vehicle control (% of control remaining) (mice (C57b1/6); Days 1): 0.35%
pIC50 [3]: 7.89
pIC50 [4]: 7.17
pEC50 [5, 9]: 4.12
Calculated EC50 (mg/kg) compared to Vehicle Control (C57b1/6 female mice): 9.00 mg/kg

SMILES: CC[S+](C)CCO.[I-] (stereo not shown) [Methylethylthioethanol iodide]
pIC50 ([2]; Homo sapiens, read-out: IC50, inhibits the conversion of choline to TMA, assay of Example 3): 5.05
EC50, inhibits the conversion of choline to TMA, assay of EXAMPLE 6 (C57b1/6 female mice; time not given): 0.8 mg/kg

SMILES: C/C=C/C[S+](C)CCO (stereo not shown) [compound 8, [(E)-but-2-enyl]-(2-hydroxyethyl)-methyl-sulfonium]
pIC50 [1, 7]: 7.82

SMILES: C[S+](CCO)CC(=O)O (stereo not shown) [ID 15, 2-Acetic acid-(2-hydroxyethyl)-methyl-sulfonium]
Remaining plasma TMAO as a percentage of plasma TMAO in same day vehicle control (% of control remaining) (mice (C57b1/6); Days 5): 69%
pIC50 ([3]; read-out: IC50 (mol/L) recombinant P. mirabilis Cut C/D lysate): 6.37
pIC50 ([4]; read-out: IC50 (mol/L) recombinant D. alaskensis Cut C/D lysate): 7.35
pEC50 ([5]; read-out: EC50 (mol/L) whole cell wild-type P. mirabilis): 7.21

SMILES: C=CC[S+](C)CCO (stereo not shown) [compound 1, Allyl-(2-hydroxyethyl)-methyl-sulfonium]
pIC50 [1, 7]: 7.34
pIC50 [2, 8]: 4.38

SMILES: C/C=C/C[S+](C)CCO (stereo not shown) [ID 8, [(E)-but-2-enyl]-(2-hydroxyethyl)-methyl-sulfonium]
Remaining plasma TMAO as a percentage of plasma TMAO in same day vehicle control (% of control remaining) (mice (C57b1/6); Days 1): 62%
pIC50 [3]: 5.82
pIC50 [4]: 6.57
pEC50 [5, 9]: 5.02

pIC50 [1, 7]: 3.70
SMILES: C#CC[S+](CCO)c1ccccc1 (stereo not shown) [compound 5, (2-hydroxyethyl)(phenyl)(prop-2-yn-1-yl)sulfonium]

SMILES: C#CC[S+](C)C [compound 20]
pIC50 [1, 7]: 8.00
pIC50 [2, 8]: 6.97

pIC50 [1, 7]: 4.53
pIC50 [2, 8]: 6.25
SMILES: CCCC[S+](C)CCO (stereo not shown) [compound 14, Butyl-(2-hydroxyethyl)-methyl-sulfonium]

SMILES: C=CC[S+](C)C [compound 21]
pIC50 [1, 7]: 7.18
pIC50 [2, 8]: 5.84

SMILES: [O-][S+]1CCOCC1 [compound 19, 4-oxido-1,4-oxathian-4-ium]
pIC50 [1]: 3.63
pIC50 ([2]; read-out: Example 3, TMA Inhibition (IC50, mol/L)): 4.61

pIC50 [1, 7]: 6.60
SMILES: C[S+](C/C=C/Br)CCO (stereo not shown) [compound 10, [(E)-3-bromoallyl]-(2-hydroxyethyl)-methyl-sulfonium]

pIC50 [1, 7]: 4.26
SMILES: C#CC[S+]1CCOCC1 [compound 24, 4-prop-2-ynyl-1,4-oxathian-4-ium]

pIC50 [1, 7]: 3.52
pIC50 [2, 8]: 5.79
SMILES: C[S+](CCO)c1ccccc1 (stereo not shown) [compound 16, Phenyl-(2-hydroxyethyl)-methyl-sulfonium]

SMILES: C#CC[S+](C)CCO (stereo not shown) [ID 2, Propargyl-(2-hydroxyethyl)-methyl-sulfonium]
pIC50 [3]: 7.33
pIC50 [4]: 7.19
pEC50 [5, 9]: 6.03
Calculated EC50 (mg/kg) compared to Vehicle Control (C57b1/6 female mice): 85.50 mg/kg

SMILES: C[S+](CCO)CCBr (stereo not shown) [compound 11, (2-bromoethyl)(2-hydroxyethyl)methylsulfonium]
pIC50 [1]: 6.66
pIC50 ([2]; Homo sapiens, 20 h, read-out: Example 3, TMA Inhibition (IC50, mol/L)): 5.52

SMILES: C=C(C)C[S+](C)CCO (stereo not shown) [ID 9, 2-hydroxyethyl-methyl-(2-methylallyl)sulfonium]
pIC50 [3]: 5.23
pIC50 [4]: 6.19
pEC50 [5, 9]: 4.64

SMILES: C=CC[S+](C)C [ID 21, Allyl(dimethyl)sulfonium]
pIC50 [3]: 6.60
pIC50 [4]: 6.39
pEC50 [5, 9]: 6.80
Calculated EC50 (mg/kg) compared to Vehicle Control (C57b1/6 female mice): 0.19 mg/kg

SMILES: C#CC[S+](C)CCO (stereo not shown) [compound 2, Propargyl-(2-hydroxyethyl)-methyl-sulfonium]
pIC50 [1, 7]: 7.42
pIC50 [2, 8]: 5.53

pIC50 [1, 7]: 4.35
pIC50 [2, 8]: 4.90
SMILES: C[S+](CCO)Cc1ccccc1 (stereo not shown) [compound 13]

SMILES: C[S+](CI)CCO (stereo not shown) [compound 6]
pIC50 [1]: 5.69
Lowest concentration tested at which cell viability was 10% or lower [6]: 250 µM

pIC50 [1, 7]: 4.23
pIC50 [2, 8]: 3.21
SMILES: CCCCCC[S+](C)CCO (stereo not shown) [compound 4, Hexyl-(2-hydroxyethyl)-methyl-sulfonium]
